In patent US12630600B2 (MEDIMMUNE LIMITED, priority 2022, dated 2026):
Starred links: 1 amine or outer side, 2 acyl side, 3 side chain; linkers in the order of their positions; H or OH if unused. Non-standard residues stand in square brackets, D forms with d. Residues, ends and D or L forms follow the SMILES beside them. Groups on a side chain read outwards from the residue. *: point of attachment. C20 diacid = O=C(O)CCCCCCCCCCCCCCCCCCC(=O)*; C18 diacid = O=C(O)CCCCCCCCCCCCCCCCC(=O)*; γGlu = O=C(O)[C@H](CCC(=O)[*:2])N[*:1]; αMeF = C[C@](N)(Cc1ccccc1)C(=O)O; AEEA = NCCOCCOCC(=O)O; Aib = CC(C)(N)C(=O)O

biological target: T1, human GLP-1 receptor (hGLP-1R) (Homo sapiens, UniProt P43220); test: cAMP production (HTRF) in CHO cells expressing human GLP-1 receptor; format: cell-based; details: Table 6; % GLP-1R activity relative to GLP-1 / % GlucR activity relative to glucagon
T1 construct: expressed in transfected cells; host or cells: CHO
T1 sequence (P43220 24-463): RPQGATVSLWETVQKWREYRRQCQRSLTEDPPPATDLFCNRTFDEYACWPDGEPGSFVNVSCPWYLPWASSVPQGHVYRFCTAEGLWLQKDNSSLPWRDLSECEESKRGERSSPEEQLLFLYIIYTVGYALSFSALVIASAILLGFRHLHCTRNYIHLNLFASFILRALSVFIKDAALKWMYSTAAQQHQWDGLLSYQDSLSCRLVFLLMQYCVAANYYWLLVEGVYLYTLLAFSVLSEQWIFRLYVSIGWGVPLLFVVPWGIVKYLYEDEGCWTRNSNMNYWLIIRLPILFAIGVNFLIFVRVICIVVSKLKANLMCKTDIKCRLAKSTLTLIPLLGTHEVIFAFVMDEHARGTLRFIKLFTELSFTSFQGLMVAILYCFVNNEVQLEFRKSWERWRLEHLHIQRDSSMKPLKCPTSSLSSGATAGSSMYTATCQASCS

| Compound | % Relative Potency Ratio |
| --- | --- |
| CC(C)C[C@H](NC(=O)[C@H](CCC(=O)O)NC(=O)[C@H](CC(C)C)NC(=O)[C@](C)(Cc1ccccc1)NC(=O)[C@H](CCCCN)NC(=O)[C@H](CO)NC(=O)[C@@H](NC(=O)[C@H](CC(=O)O)NC(=O)[C@H](CO)NC(=O)[C@@H](NC(=O)[C@H](Cc1ccccc1)NC(=O)[C@@H](NC(=O)CNC(=O)[C@H](CCC(N)=O)NC(=O)C(C)(C)NC(=O)[C@@H](N)Cc1c[nH]cn1)[C@@H](C)O)[C@@H](C)O)C(C)C)C(=O)N[C@@H](CCCCNC(=O)COCCOCCNC(=O)COCCOCCNC(=O)CC[C@H](NC(=O)CCCCCCCCCCCCCCCCC(=O)O)C(=O)O)C(=O)N[C@@H](CCCNC(=N)N)C(=O)N[C@@H](C)C(=O)N[C@@H](CCC(N)=O)C(=O)N[C@@H](CC(=O)O)C(=O)N[C@@H](Cc1ccccc1)C(=O)N[C@H](C(=O)N[C@@H](CCCNC(=N)N)C(=O)N[C@@H](Cc1c[nH]c2ccccc12)C(=O)N[C@@H](CC(C)C)C(=O)N[C@@H](CC(C)C)C(=O)NC(C)(C)C(=O)N[C@H](C(=O)N[C@@H](CCC(=O)O)C(=O)O)[C@@H](C)O)C(C)C [Peptide 169] (H-H[Aib]QGTFTSDVSK[αMeF]LELK([AEEA-AEEA-γGlu-C18 diacid])RAQDFVRWLL[Aib]TE-OH; N-terminus assumed) | 13.2 |
| CC(C)C[C@H](NC(=O)[C@H](Cc1c[nH]c2ccccc12)NC(=O)[C@H](CCC(N)=O)NC(=O)[C@@H](NC(=O)[C@H](Cc1ccccc1)NC(=O)[C@H](CC(=O)O)NC(=O)[C@H](CCCNC(=N)N)NC(=O)[C@H](C)NC(=O)[C@H](CCCNC(=N)N)NC(=O)[C@H](CCCCNC(=O)COCCOCCNC(=O)COCCOCCNC(=O)CC[C@H](NC(=O)CCCCCCCCCCCCCCCCC(=O)O)C(=O)O)NC(=O)[C@@H](NC(=O)[C@H](CCC(=O)O)NC(=O)[C@H](CC(C)C)NC(=O)[C@](C)(Cc1ccccc1)NC(=O)[C@H](CCCCN)NC(=O)[C@H](CO)NC(=O)[C@@H](NC(=O)[C@H](CC(=O)O)NC(=O)[C@H](CO)NC(=O)[C@@H](NC(=O)[C@H](Cc1ccccc1)NC(=O)[C@@H](NC(=O)CNC(=O)[C@H](CCC(N)=O)NC(=O)C(C)(C)NC(=O)[C@@H](N)Cc1c[nH]cn1)[C@@H](C)O)[C@@H](C)O)C(C)C)[C@@H](C)O)C(C)C)C(=O)N[C@@H](CC(C)C)C(=O)N[C@@H](CCC(=O)O)C(=O)NC(C)(C)C(=O)NCC(=O)O [Peptide 445] (H-H[Aib]QGTFTSDVSK[αMeF]LETK([AEEA-AEEA-γGlu-C18 diacid])RARDFVQWLLE[Aib]G-OH; N-terminus assumed) | 41.0 |

same assay, conditions: Table 8; % GLP-1R activity relative to GLP-1 / % GlucR activity relative to glucagon

| Compound | % Relative Potency Ratio |
| --- | --- |
| CC[C@H](C)[C@H](NC(=O)C(C)(C)NC(=O)[C@H](CCCCNC(=O)COCCOCCNC(=O)COCCOCCNC(=O)CC[C@H](NC(=O)CCCCCCCCCCCCCCCCC(=O)O)C(=O)O)NC(=O)[C@@H](NC(=O)[C@H](Cc1ccccc1)NC(=O)[C@H](CC(=O)O)NC(=O)[C@H](CCC(N)=O)NC(=O)[C@H](C)NC(=O)[C@H](C)NC(=O)[C@H](CCCNC(=N)N)NC(=O)[C@H](CO)NC(=O)[C@H](CC(=O)O)NC(=O)[C@H](CC(C)C)NC(=O)[C@](C)(Cc1ccccc1)NC(=O)[C@H](CCCCN)NC(=O)[C@H](CO)NC(=O)[C@@H](NC(=O)[C@H](CC(=O)O)NC(=O)[C@H](CO)NC(=O)[C@@H](NC(=O)[C@](C)(Cc1ccccc1)NC(=O)[C@H](CO)NC(=O)CNC(=O)[C@H](Cc1c[nH]cn1)NC(=O)C(C)(C)NC(=O)[C@@H](N)Cc1c[nH]cn1)[C@@H](C)O)C(C)C)C(C)C)C(=O)N[C@@H](C)C(=O)N[C@@H](CC(N)=O)C(=O)N[C@H](C(N)=O)[C@@H](C)O [Peptide 366] (H-H[Aib]HGS[αMeF]TSDVSK[αMeF]LDSRAAQDFVK([AEEA-AEEA-γGlu-C18 diacid])[Aib]IANT-NH2; N-terminus assumed) | 1.7 |
| CC[C@H](C)[C@H](NC(=O)[C@H](Cc1c[nH]c2ccccc12)NC(=O)[C@H](CCCCNC(=O)CC[C@H](NC(=O)CCCCCCCCCCCCCCCCCCC(=O)O)C(=O)O)NC(=O)[C@@H](NC(=O)[C@H](Cc1ccccc1)NC(=O)[C@H](CC(=O)O)NC(=O)[C@H](CCC(N)=O)NC(=O)[C@H](C)NC(=O)[C@H](C)NC(=O)[C@H](CCC(N)=O)NC(=O)[C@H](CO)NC(=O)[C@H](CC(=O)O)NC(=O)[C@H](CC(C)C)NC(=O)[C@](C)(Cc1ccccc1)NC(=O)[C@H](CCCCN)NC(=O)[C@H](CO)NC(=O)[C@@H](NC(=O)[C@H](CC(=O)O)NC(=O)[C@H](CO)NC(=O)[C@@H](NC(=O)[C@](C)(Cc1ccccc1)NC(=O)[C@H](CO)NC(=O)CNC(=O)[C@H](Cc1c[nH]cn1)NC(=O)C(C)(C)NC(=O)[C@@H](N)Cc1c[nH]cn1)[C@@H](C)O)C(C)C)C(C)C)C(=O)N[C@@H](C)C(=O)N[C@@H](CC(N)=O)C(=O)N[C@H](C(N)=O)[C@@H](C)O [Peptide 354] | 1.6 |

Now from value to compound:

| % Relative Potency Ratio | Compound |
| --- | --- |
| 0.9 | CC[C@H](C)[C@H](NC(=O)[C@H](Cc1c[nH]c2ccccc12)NC(=O)[C@H](CCCCNC(=O)COCCOCCNC(=O)COCCOCCNC(=O)CC[C@H](NC(=O)CC[C@H](NC(=O)CCCCCCCCCCCCCCCCC(=O)O)C(=O)O)C(=O)O)NC(=O)[C@@H](NC(=O)[C@](C)(Cc1ccccc1)NC(=O)[C@H](CC(=O)O)NC(=O)[C@H](CCC(N)=O)NC(=O)[C@H](C)NC(=O)[C@H](C)NC(=O)[C@H](CCCNC(=N)N)NC(=O)[C@H](CO)NC(=O)[C@H](CC(=O)O)NC(=O)[C@H](CC(C)C)NC(=O)[C@](C)(Cc1ccccc1)NC(=O)[C@H](CCCCN)NC(=O)[C@H](CO)NC(=O)[C@@H](NC(=O)[C@H](CC(=O)O)NC(=O)[C@H](CO)NC(=O)[C@@H](NC(=O)[C@](C)(Cc1ccccc1)NC(=O)[C@H](CO)NC(=O)CNC(=O)[C@H](Cc1c[nH]cn1)NC(=O)C(C)(C)NC(=O)[C@@H](N)Cc1c[nH]cn1)[C@@H](C)O)C(C)C)C(C)C)C(=O)N[C@@H](C)C(=O)N[C@@H](CC(N)=O)C(=O)N[C@H](C(N)=O)[C@@H](C)O [Peptide 371] (H-H[Aib]HGS[αMeF]TSDVSK[αMeF]LDSRAAQD[αMeF]VK([AEEA-AEEA-γGlu-γGlu-C18 diacid])WIANT-NH2; N-terminus assumed) |
| 1.1 | CC[C@H](C)[C@H](NC(=O)[C@H](Cc1c[nH]c2ccccc12)NC(=O)[C@H](CCCCNC(=O)COCCOCCNC(=O)COCCOCCNC(=O)CC[C@H](NC(=O)CCCCCCCCCCCCCCCCC(=O)O)C(=O)O)NC(=O)[C@@H](NC(=O)[C@](C)(Cc1ccccc1)NC(=O)[C@H](CC(=O)O)NC(=O)[C@H](CCC(N)=O)NC(=O)[C@H](C)NC(=O)[C@H](C)NC(=O)[C@H](CCC(N)=O)NC(=O)[C@H](CO)NC(=O)[C@H](CC(=O)O)NC(=O)[C@H](CC(C)C)NC(=O)[C@](C)(Cc1ccccc1)NC(=O)[C@H](CCCCN)NC(=O)[C@H](CO)NC(=O)[C@@H](NC(=O)[C@H](CC(=O)O)NC(=O)[C@H](CO)NC(=O)[C@@H](NC(=O)[C@](C)(Cc1ccccc1)NC(=O)[C@H](CO)NC(=O)CNC(=O)[C@H](Cc1c[nH]cn1)NC(=O)C(C)(C)NC(=O)[C@@H](N)Cc1c[nH]cn1)[C@@H](C)O)C(C)C)C(C)C)C(=O)N[C@@H](C)C(=O)N[C@@H](CC(N)=O)C(=O)N[C@H](C(N)=O)[C@@H](C)O [Peptide 370] (H-H[Aib]HGS[αMeF]TSDVSK[αMeF]LDSQAAQD[αMeF]VK([AEEA-AEEA-γGlu-C18 diacid])WIANT-NH2; N-terminus assumed) |
| 1.2 | CC[C@H](C)[C@H](NC(=O)[C@H](Cc1c[nH]c2ccccc12)NC(=O)[C@H](CCCCNC(=O)COCCOCCNC(=O)COCCOCCNC(=O)CC[C@H](NC(=O)CC[C@H](NC(=O)CCCCCCCCCCCCCCCCCCC(=O)O)C(=O)O)C(=O)O)NC(=O)[C@@H](NC(=O)[C@](C)(Cc1ccccc1)NC(=O)[C@H](CC(=O)O)NC(=O)[C@H](CCC(N)=O)NC(=O)[C@H](C)NC(=O)[C@H](C)NC(=O)[C@H](CCCNC(=N)N)NC(=O)[C@H](CO)NC(=O)[C@H](CC(=O)O)NC(=O)[C@H](CC(C)C)NC(=O)[C@](C)(Cc1ccccc1)NC(=O)[C@H](CCCCN)NC(=O)[C@H](CO)NC(=O)[C@@H](NC(=O)[C@H](CC(=O)O)NC(=O)[C@H](CO)NC(=O)[C@@H](NC(=O)[C@](C)(Cc1ccccc1)NC(=O)[C@H](CO)NC(=O)CNC(=O)[C@H](Cc1c[nH]cn1)NC(=O)C(C)(C)NC(=O)[C@@H](N)Cc1c[nH]cn1)[C@@H](C)O)C(C)C)C(C)C)C(=O)N[C@@H](C)C(=O)N[C@@H](CC(N)=O)C(=O)N[C@H](C(N)=O)[C@@H](C)O [Peptide 374] (H-H[Aib]HGS[αMeF]TSDVSK[αMeF]LDSRAAQD[αMeF]VK([AEEA-AEEA-γGlu-γGlu-C20 diacid])WIANT-NH2; N-terminus assumed) |
| 3.8 | CC[C@H](C)[C@H](NC(=O)C(C)(C)NC(=O)[C@H](CCCCNC(=O)COCCOCCNC(=O)COCCOCCNC(=O)CC[C@H](NC(=O)CCCCCCCCCCCCCCCCCCC(=O)O)C(=O)O)NC(=O)[C@@H](NC(=O)[C@H](Cc1ccccc1)NC(=O)[C@H](CC(=O)O)NC(=O)[C@H](CCC(N)=O)NC(=O)[C@H](C)NC(=O)[C@H](C)NC(=O)[C@H](CCCNC(=N)N)NC(=O)[C@H](CO)NC(=O)[C@H](CC(=O)O)NC(=O)[C@H](CC(C)C)NC(=O)[C@](C)(Cc1ccccc1)NC(=O)[C@H](CCCCN)NC(=O)[C@H](CO)NC(=O)[C@@H](NC(=O)[C@H](CC(=O)O)NC(=O)[C@H](CO)NC(=O)[C@@H](NC(=O)[C@](C)(Cc1ccccc1)NC(=O)[C@H](CO)NC(=O)CNC(=O)[C@H](Cc1c[nH]cn1)NC(=O)C(C)(C)NC(=O)[C@@H](N)Cc1c[nH]cn1)[C@@H](C)O)C(C)C)C(C)C)C(=O)N[C@@H](C)C(=O)N[C@@H](CC(N)=O)C(=O)N[C@H](C(N)=O)[C@@H](C)O [Peptide 369] (H-H[Aib]HGS[αMeF]TSDVSK[αMeF]LDSRAAQDFVK([AEEA-AEEA-γGlu-C20 diacid])[Aib]IANT-NH2) |

same assay, conditions: Table 10; % GLP-1R activity relative to GLP-1 / % GlucR activity relative to glucagon

| % Relative Potency Ratio | Compound |
| --- | --- |
| 16.7 | HSQGS(αMePhe)TSDVSKK((PEG)2-(PEG)2-γE-VE-Palmitoyl)13LDS(B-dimethylArg)AAQD(aMePhe)VE(Aib)LANT-amide [Peptide 400] |
| 31.6 | H(Aib)HGS(αMePhe)TSDVSKK(O2OC-O2OC-γE-C18diacid)13LDSRAAQD(αMePhe)VQ(Aib)IANT-amide [Peptide 406] |
